In US8772448B2, “Peptides immunoreactive with autoantibodies from patients suffering from rheumatoid arthritis” (Stichting Voor de Technische Wetenschappen, priority 1996, dated 2014):
Where no end group is shown, it is not given here. [ ]: non-standard residue; d: D form. Cit = NC(=O)NCCC[C@H](N)C(=O)O

What was measured:
Type in all cases: binding, human
[1] = test system: autoimmune antibodies in sera from patients suffering from rheumatoid arthritis; test: ELISA of coupled peptides with RA sera; details: for immunological reactivity in ELISA: RA sera; for RA sera (%) positive / RA sera: number of positive sera: n = 134 RA sera, positive = OD450 of 0.2 after deduction of blank; for RA sera: number of positive sera: sera diluted 200 times
Procedure: (§1) Detection by Means of ELISA
Via an N-oxysuccinimide surface the peptides were covalently coupled to the wells of 96-well microtitre plates (Costar amide binding plates) in an amount of 1 ? g/well. Coupling took place for 16 hours at 4EC and pH 9.0. The plates were blocked for 1 hour with 2% bovine serum albumin. The sera were diluted 200 times in a diluent (0.3% BSA, 350 mM NaCl, 10 mM Tris-HCl pH 7.6, 1% vol./vol. Triton X-100, 0.5% w./vol. Na-deoxycholate, 0.1% SDS) supplemented with 10% normal rabbit serum, and incubated for one hour at room temperature. After washing the plates (3 times with PBS containing 0.05 by vol. of Tween® 20), 100 ? l of antihuman IgG conjugated with peroxidase (Dako P214), 1000 times diluted in dilution buffer, was added to the wells. After incubation for 1 hour at room temperature, the plates were washed 3 times with PBS/Tween®, and bound antibodies were detected with tetramethyl benzidine as a substrate. After 10 minutes the reaction was stopped by adding 100 ? l of 2 M sulphuric acid per well. Readout occurred at 450 nm. Sera having an OD450 of 0.2, after deduction of the blank for the respective serum (a well without a coupled peptide), were considered to be positive. […]

[2] = test system: antibodies in control sera from patients suffering from rheumatic diseases other than RA; test: ELISA of coupled peptides with control sera; details: n = 154; rheumatic diseases other than RA
Procedure: as §1
(§2) Via an N-oxysuccinimide surface the peptides were covalently coupled to the wells of 96-well microtitre plates (Costar amide binding plates) in an amount of 1 ? g/well. Coupling took place for 16 hours at 4EC and pH 9.0. The plates were blocked for 1 hour with 2% bovine serum albumin. The sera were diluted 200 times in a diluent (0.3% BSA, 350 mM NaCl, 10 mM Tris-HCl pH 7.6, 1% vol./vol. Triton X-100, 0.5% w./vol. Na-deoxycholate, 0.1% SDS) supplemented with 10% normal rabbit serum, and incubated for one hour at room temperature. After washing the plates (3 times with PBS containing 0.05 by vol. of Tween® 20), 100 ? l of antihuman IgG conjugated with peroxidase (Dako P214), 1000 times diluted in dilution buffer, was added to the wells. After incubation for 1 hour at room temperature, the plates were washed 3 times with PBS/Tween®, and bound antibodies were detected with tetramethyl benzidine as a substrate. After 10 minutes the reaction was stopped by adding 100 ? l of 2 M sulphuric acid per well. Readout occurred at 450 nm. Sera having an OD450 of 0.2, after deduction of the blank for the respective serum (a well without a coupled peptide), were considered to be positive.
In total, 288 sera from patients suffering from rheumatoid diseases were used, 132 of which were from patients suffering from rheumatoid arthritis.

[3] = test system: antibodies in SLE (systemic lupus erythematosus) sera; test: ELISA of coupled peptides with SLE sera; details: n = 50
Procedure: as §1, §2

[4] = test system: antibodies in SSC (systemic scleroderma) sera; test: ELISA of coupled peptides with SSC sera; details: n = 50
Procedure: as §1, §2

[5] = test system: antibodies in pSS (primary Sjögren's syndrome) sera; test: ELISA of coupled peptides with pSS sera; details: n = 50
Procedure: as §1, §2

[6] = test system: antibodies in PM/DM (polymyositis/dermatomyositis) sera; test: ELISA of coupled peptides with PM/DM sera; details: n = 50
Procedure: as §1, §2

Row | Sequence | immunological reactivity in ELISA [1] | RA sera (%) positive [1] [%] | RA sera: number of positive sera [1] | control sera (%) positive [2] [%] | control sera: number of positive sera [2] | SLE: number of positive sera [3] | SSC (%) positive [4] [%] | SSC: number of positive sera [4] | pSS (%) positive [5] [%] | pSS: number of positive sera [5] | PM/DM (%) positive [6] [%] | PM/DM: number of positive sera [6] | SLE (%) positive [3] [%]
1 | ESSHGWTGPSTRGRQGSRHE [nf, reference compound] | not | – | – | – | – | – | – | – | – | – | – | – | –
2 | SHQESTAGRSRGRSGRSGS [cfA, reference compound] | did not seem to be immunologically reactive | – | – | – | – | – | – | – | – | – | – | – | –
3 | SHQESTEGRSRGRSGRSGS [cfE, reference compound] | did not seem to be immunologically reactive | – | – | – | – | – | – | – | – | – | – | – | –
4 | SHQESTQGRSRGRSGRSGS [cfQ, reference compound] | did not seem to be immunologically reactive | – | – | – | – | – | – | – | – | – | – | – | –
5 | SHQESTRGRSRGRSGRSGS (Derived from known cDNA sequences of human profilaggrin) [cf, reference compound] | did not seem to be immunologically reactive | – | – | – | – | – | – | – | – | – | – | – | –
6 | SHQESTRGRSRGRSGXSGS (SHQESTRGRSRGRSG[Cit]SGS-NH2; N-terminus assumed; SMILES C[C@@H](O)[C@H](NC(=O)[C@H](CO)NC(=O)[C@H](CCC(=O)O)NC(=O)[C@H](CCC(N)=O)NC(=O)[C@H](Cc1c[nH]cn1)NC(=O)[C@@H](N)CO)C(=O)N[C@@H](CCCNC(=N)N)C(=O)NCC(=O)N[C@@H](CCCNC(=N)N)C(=O)N[C@@H](CO)C(=O)N[C@@H](CCCNC(=N)N)C(=O)NCC(=O)N[C@@H](CCCNC(=N)N)C(=O)N[C@@H](CO)C(=O)NCC(=O)N[C@@H](CCCNC(N)=O)C(=O)N[C@@H](CO)C(=O)NCC(=O)N[C@@H](CO)C(N)=O) [cfc5] | – | 48 | 64 | 0.6 | 1 | 0 | 2 | 1 | 4 | 2 | 2 | 1 | –
7 | SHQESTRGRSRGXSGRSGS (SHQESTRGRSRG[Cit]SGRSGS-NH2; N-terminus assumed; SMILES C[C@@H](O)[C@H](NC(=O)[C@H](CO)NC(=O)[C@H](CCC(=O)O)NC(=O)[C@H](CCC(N)=O)NC(=O)[C@H](Cc1c[nH]cn1)NC(=O)[C@@H](N)CO)C(=O)N[C@@H](CCCNC(=N)N)C(=O)NCC(=O)N[C@@H](CCCNC(=N)N)C(=O)N[C@@H](CO)C(=O)N[C@@H](CCCNC(=N)N)C(=O)NCC(=O)N[C@@H](CCCNC(N)=O)C(=O)N[C@@H](CO)C(=O)NCC(=O)N[C@@H](CCCNC(=N)N)C(=O)N[C@@H](CO)C(=O)NCC(=O)N[C@@H](CO)C(N)=O) [cfc4] | – | 24 | 32 | 1.3 | 2 | 0 | – | 0 | – | 0 | – | 0 | –
8 | SHQESTRGRSXGRSGRSGS (SHQESTRGRS[Cit]GRSGRSGS-NH2; N-terminus assumed; SMILES C[C@@H](O)[C@H](NC(=O)[C@H](CO)NC(=O)[C@H](CCC(=O)O)NC(=O)[C@H](CCC(N)=O)NC(=O)[C@H](Cc1c[nH]cn1)NC(=O)[C@@H](N)CO)C(=O)N[C@@H](CCCNC(=N)N)C(=O)NCC(=O)N[C@@H](CCCNC(=N)N)C(=O)N[C@@H](CO)C(=O)N[C@@H](CCCNC(N)=O)C(=O)NCC(=O)N[C@@H](CCCNC(=N)N)C(=O)N[C@@H](CO)C(=O)NCC(=O)N[C@@H](CCCNC(=N)N)C(=O)N[C@@H](CO)C(=O)NCC(=O)N[C@@H](CO)C(N)=O) [cfc3] | – | 28 | 37 | 0.6 | 2 | 0 | – | 0 | 2 | 1 | 2 | 1 | –
9 | SHQESTRGXSRGRSGRSGS (SHQESTRG[Cit]SRGRSGRSGS-NH2; N-terminus assumed; SMILES C[C@@H](O)[C@H](NC(=O)[C@H](CO)NC(=O)[C@H](CCC(=O)O)NC(=O)[C@H](CCC(N)=O)NC(=O)[C@H](Cc1c[nH]cn1)NC(=O)[C@@H](N)CO)C(=O)N[C@@H](CCCNC(=N)N)C(=O)NCC(=O)N[C@@H](CCCNC(N)=O)C(=O)N[C@@H](CO)C(=O)N[C@@H](CCCNC(=N)N)C(=O)NCC(=O)N[C@@H](CCCNC(=N)N)C(=O)N[C@@H](CO)C(=O)NCC(=O)N[C@@H](CCCNC(=N)N)C(=O)N[C@@H](CO)C(=O)NCC(=O)N[C@@H](CO)C(N)=O) [cfc2] | – | 20 | 27 | 2.6 | 4 | 1 | – | 0 | 2 | 1 | 2 | 1 | 2
10 | SHQESTXGRSRGRSGXSGS (SHQEST[Cit]GRSRGRSG[Cit]SGS-NH2; N-terminus assumed; SMILES C[C@@H](O)[C@H](NC(=O)[C@H](CO)NC(=O)[C@H](CCC(=O)O)NC(=O)[C@H](CCC(N)=O)NC(=O)[C@H](Cc1c[nH]cn1)NC(=O)[C@@H](N)CO)C(=O)N[C@@H](CCCNC(N)=O)C(=O)NCC(=O)N[C@@H](CCCNC(=N)N)C(=O)N[C@@H](CO)C(=O)N[C@@H](CCCNC(=N)N)C(=O)NCC(=O)N[C@@H](CCCNC(=N)N)C(=O)N[C@@H](CO)C(=O)NCC(=O)N[C@@H](CCCNC(N)=O)C(=O)N[C@@H](CO)C(=O)NCC(=O)N[C@@H](CO)C(N)=O) [cfc9] | – | 42 | 57 | 0.6 | 1 | 0 | – | 0 | 4 | 2 | – | 0 | –
11 | SHQESTXGRSRGXSGRSGS (SHQEST[Cit]GRSRG[Cit]SGRSGS-NH2; N-terminus assumed; SMILES C[C@@H](O)[C@H](NC(=O)[C@H](CO)NC(=O)[C@H](CCC(=O)O)NC(=O)[C@H](CCC(N)=O)NC(=O)[C@H](Cc1c[nH]cn1)NC(=O)[C@@H](N)CO)C(=O)N[C@@H](CCCNC(N)=O)C(=O)NCC(=O)N[C@@H](CCCNC(=N)N)C(=O)N[C@@H](CO)C(=O)N[C@@H](CCCNC(=N)N)C(=O)NCC(=O)N[C@@H](CCCNC(N)=O)C(=O)N[C@@H](CO)C(=O)NCC(=O)N[C@@H](CCCNC(=N)N)C(=O)N[C@@H](CO)C(=O)NCC(=O)N[C@@H](CO)C(N)=O) [cfc8] | – | 41 | 55 | 0.6 | 1 | 0 | – | 0 | 2 | 1 | 2 | 1 | –
12 | TGPSTRGRQGSXHE (TGPSTRGRQGS[Cit]HE-NH2; N-terminus assumed; SMILES C[C@@H](O)[C@H](N)C(=O)NCC(=O)N1CCC[C@H]1C(=O)N[C@@H](CO)C(=O)N[C@H](C(=O)N[C@@H](CCCNC(=N)N)C(=O)NCC(=O)N[C@@H](CCCNC(=N)N)C(=O)N[C@@H](CCC(N)=O)C(=O)NCC(=O)N[C@@H](CO)C(=O)N[C@@H](CCCNC(N)=O)C(=O)N[C@@H](Cc1c[nH]cn1)C(=O)N[C@@H](CCC(=O)O)C(N)=O)[C@@H](C)O) [nfc1] | – | 10 | – | – | – | – | – | – | – | – | – | – | –
